Assay results as given in patent publication US20190209506A1, “METHODS OF REDUCING OR PREVENTING OXIDATION OF LDL OR LIPID MEMBRANES IN A SUBJECT IN NEED THEREOF” (Amarin Pharmaceuticals Ireland Limited, priority 2018, published 2019).
Values joined by “and” are separate entries in the source; they are usually repeats but may differ in a detail not shown here. Equal values may be shown once.

What was measured:
human sdLDL [1] = assay: Copper-induced sdLDL oxidation with fatty acids, TBARS/MDA (Example 14); type: biochemical; conditions: 1.0 μM; for effect on lipoprotein oxidation compared to vehicle / inhibition of lipoprotein oxidation versus vehicle: 40 minutes; for effect on oxidation: 60 minutes
Experimental: Venous blood was collected from healthy volunteers into vacutainer tubes. Plasma was separated by centrifugation at 3000 g for 25 min at 4° C. and adjusted to a density of 1.020 g/mL with KBr. sdLDL was isolated from the plasma of healthy volunteers by iodixanol density gradient ultracentrifugation and adjusted to a final apolipoprotein concentration of 2 mg/mL. An aliquot of sdLDL (50 μL) was incubated with either 10 μL vehicle (ethanol) or 10 μL FA (EPA, ETE, AA, EA, DHA, DPA, ALA, LA or SA) treatment stock solution (100 μM) for 30 min at 37° C. Oxidation was initiated with addition of initiator CuSO4 (10.0 μM). At certain time points (0, 40, 60, and 120 minutes), […] were removed from each subfraction and combined with 1.0 mL thiobarbituric acid (0.5%), 10 μL trichloroacetic acid (10%), 10 μL butylated hydroxytoluene (BHT; 35 mM in ethanol), and 10 μL ethylenediaminetetraacetic acid (EDTA; 5 mM). Sample aliquots were incubated at 100° C. for 30 min and then assayed for the formation of thiobarbituric acid reactive substances (TBARS), which have a molar absorptivity (ε) value of 1.56×105 M^−1 cm^−1 at 532 nm and are largely derived from the reaction of thiobarbituric acid with MDA, a reactive aldehyde produced by sdLDL oxidation. Sample TBARS concentrations were determined spectrophotometrically by measuring sample absorbances against a standard curve derived from the hydrolysis of 1,1,3,3-tetramethoxypropane.

[2] = Membrane cholesterol domain structural integrity, x-ray diffraction (Example 9); conditions: D/P mole ratio 1:30, C/P 1.5:1
Experimental: Multilamellar vesicles (MLVs) were prepared as binary mixtures that include palmitoyloleoylphosphatidylcholine (POPC) (1.0 mg total phospholipid per sample) and cholesterol at an elevated cholesterol-to-phospholipid (C/P) mole ratio of 1.5:1. […] Samples were shell-dried under nitrogen gas and placed under vacuum for 3 hours to remove residual solvent at room temperature. After desiccation, each sample was resuspended in saline buffer (0.5 mM HEPES, 154 mM NaCl, pH 7.3) to yield a final phospholipid concentration of 2.5 mg/mL. Lipid suspensions were then vortexed for 3 minutes at ambient temperature to form MLVs.
Briefly, a 100 μL aliquot of each MLV preparation (containing 250 μg MLV) was transferred to a Lucite® sedimentation cell fitted with an aluminum foil substrate designed to collect MLVs into a single membrane pellet upon centrifugation. Samples were then loaded into a Sorvall AH-629 swinging bucket rotor (DuPont Corp., Wilmington, Del.) and centrifuged at 35,000 g, 5° C., for 90 minutes.
After centrifugal orientation, sample supernatants were aspirated and aluminum foil substrates, each supporting a single membrane pellet, were removed from the sedimentation cells. Sample pellets were dried for 5-10 minutes at ambient conditions, mounted onto curved glass supports, and placed in hermetically-sealed, brass or glass containers (for immediate analysis or temporary storage, respectively). All x-ray diffraction experiments were conducted at 20° C., 74% relative humidity. The latter was established by exposing membrane samples to saturated solutions of […] (K2C4H4O6.½H2O) for at least 1 hour prior to experimental analysis.
Oriented membrane samples were aligned at grazing incidence with respect to a collimated, mono-chromatic CuKα x-ray beam (Kα1 and Kα2 unresolved; λ=1.54 Å) produced by a Rigaku Rotaflex RU-200, high-brilliance microfocus generator (Rigaku-MSC, The Woodlands, Tex.) as previously described (Mason et al., Biophys. J., vol. 55(4), pages 769-778 (1989)). The samples were initially subjected to x-ray diffraction analysis at least 12 hours after formation of the membrane pellets and retested for up to several days. Analytical x-rays were generated by electron bombardment of a rotating copper anode and are filtered through a thin nickel foil to provide monochromatic radiation (λ=1.54 Å). Collimation of the x-ray beam was achieved using a single Franks mirror. Diffraction data were collected on a one-dimensional, position-sensitive electron detector (Hecus X-ray Systems, Graz, Austria) at a sample-to-detector distance of 150 mm from the sample site.
The d-space for any given membrane multi bilayer is a measurement of the unit cell periodicity of the membrane lipid bilayer (e.g., the distance from the center of one lipid bilayer to the next including surface hydration), and is calculated from Bragg's Law, hλ=2d sin θ, where h is the diffraction order, λ is the wavelength of the x-ray radiation (1.54 Å), d is the membrane lipid bilayer unit cell periodicity, and θ is the Bragg angle equal to one-half the angle between the incident beam and scattered beam.
The presence of cholesterol domains in a given membrane sample results in the production of distinct Bragg (diffraction) peaks having singular periodicity values of 34 and 17 Å (typically referred to as first- and second-order cholesterol domain peaks). Under the specific temperature and relative humidity conditions established for these experiments, the second-order, 17 Å cholesterol domain peak was well-delineated from other, neighboring cholesterol and phospholipid diffraction peaks and was thus used to quantitate relative cholesterol domain peak intensity. Routines written in Origin 8.6 (OriginLab Corporation, Northampton, Mass.) were used to determine total peak area (associated with all diffraction peaks in a given pattern) against which the second-order cholesterol domain peak was normalized.

human sdLDL [3] = assay: Glucose-induced sdLDL oxidation, MDA/TBARS (Example 10); type: biochemical; conditions: 10 μM; glucose 200 mg/dL; 1 hr
Experimental: Vitamin E (α-tocopherol) purchased from Sigma-Aldrich was prepared in ethanol at 1.0 mM (ε=3.06×10^4M^−1 cm^−1 at 294 nm) prior to experimental use. Test compounds were further diluted in ethanol or aqueous buffer as needed. Phosphate Buffered Saline (PBS) purchased from Sigma-Aldrich was prepared in double distilled water at 10 mM (138 mM NaCl, 2.7 mM KCl, pH 7.4). Glucose prepared in PBS was added to test samples to achieve a final concentration of 11.0 mM (200 mg/dL).
LDL and sdLDL were isolated from the plasma of healthy volunteers by iodixanol density gradient ultracentrifugation and adjusted to a final apolipoprotein concentration of 10 mg/mL. […] Sample aliquots were incubated at 100° C. for 30 minutes and then assayed for the formation of thiobarbituric acid-reactive substances (TBARS), having a molar absorptivity (ε) value of 1.56×10^5 M^−1 cm^−1 at 532 nm and were derived principally from the reaction of thiobarbituric acid with malondialdehyde (MDA). Lipid oxidation was measured by the colorimetric detection of malondialdehyde (MDA), a marker of oxidative stress.

human LDL = assay: Copper-induced oxidation of unfractionated LDL, TBARS (Example 7); type: biochemical; conditions: 10 μM; 1 hour
Experimental: An experiment to study the antioxidant effect of EPA in LDL and small dense LDL (“sdLDL”) was performed. LDL and sdLDL were isolated from the plasma of healthy volunteers by iodixanol density gradient ultracentrifugation, and adjusted to a final apolipoprotein concentration of 2 mg/mL. […] Vitamin E was also incubated with sample aliquots as a positive control.

human sdLDL [4] = assay: Copper-induced sdLDL oxidation, TBARS (Example 7); type: biochemical; conditions: 10 μM; 1 hour
Experimental: An experiment to study the antioxidant effect of EPA in LDL and small dense LDL (“sdLDL”) was performed. LDL and sdLDL were isolated from the plasma of healthy volunteers by iodixanol density gradient ultracentrifugation, and adjusted to a final apolipoprotein concentration of 2 mg/mL. […] Lipid oxidation was initiated with 10 μM CuSO4 and monitored by the colorimetric detection of thiobarbituric acid reactive substances (TBARS) for 1 hr. Vitamin E was also incubated with sample aliquots as a positive control.

[5] = LOOH formation in membrane vesicles, fatty acid comparison (Example 16); type: biochemical; conditions: 5 μM; 0.1 μM copper sulfate, 48 hours
Experimental: Iodometric approaches were used to measure in vitro LOOH formation in membrane vesicles reconstituted as binary mixtures of cholesterol and dilinoleoyl phosphatidylcholine. Vesicles were prepared at a cholesterol-to-phospholipid mole ratio of 0.6:1 and subjected to autoxidation (e.g., lipid oxidation) at 37° C. Lipid oxidation was stimulated with 0.1 μM copper sulfate for 48 hours. All FAs were delivered at 5 and 10 μM.

| Molecule | effect on lipoprotein oxidation compared to vehicle (human sdLDL [1]) | MDA Equivalents (Mean ± SD) (human sdLDL [1]; time point 0 min) | MDA Equivalents (Mean ± SD) (human sdLDL [1]; time point 40 min) | MDA Equivalents (Mean ± SD) (human sdLDL [1]; time point 60 min) | MDA Equivalents (Mean ± SD) (human sdLDL [1]; time point 120 min) | % change Vs control (cholesterol domain peak intensity) [2] | Relative Cholesterol Domain Peak Intensity [2] | other results |
| --- | --- | --- | --- | --- | --- | --- | --- | --- |
| CCCCC/C=C\C/C=C\C/C=C\C/C=C\CCCC(=O)O [AA, arachidonic acid] | failed to inhibit lipoprotein oxidation | 0.67 ± 0.06 µM | 10.89 ± 0.35 µM | 11.86 ± 0.46 µM | 12.88 ± 0.60 µM | −45.2% and −46.8 ± 15.2% | 22.5 ± 4.3 | – |
| CCCCCCCC/C=C\CCCCCCCC(=O)O [OA, oleic acid] | did not completely lipoprotein oxidation | 0.78 ± 0.13 µM | 10.98 ± 0.36 µM | 12.00 ± 0.19 µM | 12.57 ± 0.38 µM | – | – | – |
| CCCCCCCCCCCCCCCCCCCC(=O)O [EA, eicosanoic acid] | did not completely inhibit oxidation compared to vehicle | 1.06 ± 0.09 µM | 11.27 ± 0.28 µM | 11.65 ± 0.65 µM | 13.22 ± 0.68 µM | – | – | – |
| Cc1ccc(C)c(OCCCC(C)(C)C(=O)O)c1 [gemfibrozil] | – | – | – | – | – | 11% | 46.9±12.6 | effect on glucose-induced sdLDL oxidation (human sdLDL [3]): did not inhibit glucose-induced sdLDL oxidation; effect on unfractionated LDL oxidation (human LDL): no significant effect on unfractionated LDL oxidation; effect on sdLDL oxidation compared to vehicle-treated controls (human sdLDL [4]): no significant effect on sdLDL oxidation; % change Vs control (cholesterol domain peak intensity) ([2]; listed as Gemfib): −10.9 ± 43.3%; Relative Cholesterol Domain Peak Intensity ([2]; listed as Gemfib): 46.9 ± 12.6 |
| CCCCCCCCCCCCCCCCCC(=O)O [SA, stearic acid] | did not completely inhibit oxidation compared to vehicle | 0.78 ± 0.01 µM | 10.60 ± 0.21 µM | 12.07 ± 0.23 µM | 12.33 ± 0.10 µM | – | – | – |
| CCCCC/C=C\C/C=C\CCCCCCCC(=O)O [LA, linoleic acid] | did not completely lipoprotein oxidation | 0.57 ± 0.12 µM | 10.74 ± 0.27 µM | 11.89 ± 0.30 µM | 12.55 ± 0.78 µM | – | – | – |
| CC1(C)[C@@H](O[C@H]2O[C@H](C(=O)O)[C@@H](O)[C@H](O)[C@H]2O[C@@H]2O[C@H](C(=O)O)[C@@H](O)[C@H](O)[C@H]2O)CC[C@]2(C)[C@H]3C(=O)C=C4[C@@H]5C[C@@](C)(C(=O)O)CC[C@]5(C)CC[C@@]4(C)[C@]3(C)CC[C@@H]12 [glycyrrhizin] | – | – | – | – | – | −54.9 ± 12.3% | 19.1±1.2 | reduction in cholesterol domain peaks compared to vehicle [2]: 54.9%; Relative Cholesterol Domain Peak Intensity ([2]; listed as Glyc): 19.1 ± 1.2 |
| CC/C=C\C/C=C\C/C=C\CCCCCCCC(=O)O [ALA, α-linolenic acid] | – | 0.40 ± 0.06 µM | 8.91 ± 0.24 µM | 11.48 ± 0.18 µM | 12.94 ± 0.40 µM | −46.8% and −45.2 ± 11.3% | 23.2 ± 0.6 | inhibition of lipoprotein oxidation versus vehicle (human sdLDL [1]): 16% and 15%; effect on oxidation (human sdLDL [1]): failed to inhibit oxidation at 60 minutes; reduction of LOOH levels compared to the vehicle [5]: 27% |
| eicosatrienoic acid [ETE] | – | 0.40 ± 0.11 µM | 7.19 ± 0.43 µM | 10.90 ± 0.28 µM | 12.57 ± 0.15 µM | – | – | inhibition of lipoprotein oxidation versus vehicle (human sdLDL [1]): 32%; effect on oxidation (human sdLDL [1]): failed to inhibit oxidation at 60 minutes; reduction of LOOH levels compared to the vehicle [5]: 36% |
| O=C(O)c1cccnc1 [niacin, nicotinic acid] | – | – | – | – | – | −35% | 27.5±12.2 | effect on glucose-induced sdLDL oxidation (human sdLDL [3]): did not inhibit glucose-induced sdLDL oxidation; effect on unfractionated LDL oxidation (human LDL): no significant effect on unfractionated LDL oxidation; effect on sdLDL oxidation compared to vehicle-treated controls (human sdLDL [4]): no significant effect on sdLDL oxidation; % change Vs control (cholesterol domain peak intensity) ([2]; listed as Niacin): −35.0 ± 30.8%; Relative Cholesterol Domain Peak Intensity ([2]; listed as Niacin): 27.5 ± 12.2 |
